Source: ChEMBL document CHEMBL1201861, “Genomics of Drug Sensitity in Cancer screening data, Wellcome Trust Sanger Institute”

Experiments:
Experiment in all cases: cells
TGW = assay type: functional, cell-based, Homo sapiens; conditions: Homo sapiens, TGW;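 note: growth inhibition of human TGW cells, read out with a cell viability assay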
Description: SANGER: Inhibition of human TGW cell growth in a cell viability assay.

GB-1 = assay type: functional, cell-based, Homo sapiens; conditions: Homo sapiens, GB-1;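 note: growth of GB-1 cells judged by a viability assay, IC50 marks the concentration inhibiting growth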
Description: SANGER: Inhibition of human GB-1 cell growth in a cell viability assay.

LB2518-MEL = assay type: functional, cell-based; conditions: Homo sapiens;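 note: growth inhibition of human LB2518-MEL cells, measured with a cell viability assay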
Description: SANGER: Inhibition of human LB2518-MEL cell growth in a cell viability assay.

A498 = assay type: functional, cell-based, Homo sapiens; conditions: Homo sapiens, A498;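 note: growth inhibition of human A498 cells, read out with a cell viability assay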
Description: SANGER: Inhibition of human A498 cell growth in a cell viability assay.

LU-134-A = assay type: functional, cell-based, Homo sapiens; conditions: Homo sapiens, LU-134-A
Description: SANGER: Inhibition of human LU-134-A cell growth in a cell viability assay.

SK-MEL-1 = assay type: functional, cell-based, Homo sapiens; conditions: Homo sapiens, SK-MEL-1;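 note: growth inhibition of human SK-MEL-1 cells, read out by a cell viability assay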
Description: SANGER: Inhibition of human SK-MEL-1 cell growth in a cell viability assay.

MLMA = assay type: functional, cell-based, Homo sapiens; conditions: Homo sapiens, MLMA;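 note: growth inhibition of MLMA cells (human), determined through a cell viability readout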
Description: SANGER: Inhibition of human MLMA cell growth in a cell viability assay.

MZ7-mel = assay type: functional, cell-based, Homo sapiens; conditions: Homo sapiens, MZ7-mel;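 note: growth inhibition of human MZ7-mel cells, measured by a cell viability assay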
Description: SANGER: Inhibition of human MZ7-mel cell growth in a cell viability assay.

HCC2157 = assay type: functional, cell-based, Homo sapiens; conditions: Homo sapiens, HCC2157;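 note: growth inhibition of the cancer cell line, read out as cell viability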
Description: SANGER: Inhibition of human HCC2157 cell growth in a cell viability assay.

GOTO = assay type: functional, cell-based, Homo sapiens; conditions: Homo sapiens, GOTO;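 note: growth inhibition of GOTO cells, read out by a cell viability assay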
Description: SANGER: Inhibition of human GOTO cell growth in a cell viability assay.

VA-ES-BJ = assay type: functional, cell-based, Homo sapiens; conditions: Homo sapiens, VA-ES-BJ;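 note: growth inhibition of the VA-ES-BJ cell line, read out by a cell viability assay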
Description: SANGER: Inhibition of human VA-ES-BJ cell growth in a cell viability assay.

ES6 = assay type: functional, cell-based; conditions: Homo sapiens;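 note: growth inhibition of human ES6 cells, read out with a cell viability assay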
Description: SANGER: Inhibition of human ES6 cell growth in a cell viability assay.

SNB-75 = assay type: functional, cell-based, Homo sapiens; conditions: Homo sapiens, SNB-75;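 note: cell viability assay measuring growth inhibition of human SNB-75 cells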
Description: SANGER: Inhibition of human SNB75 cell growth in a cell viability assay.

SCC-15 = assay type: functional, cell-based, Homo sapiens; conditions: Homo sapiens, SCC-15;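 note: growth inhibition of SCC-15 cells, read out with a cell viability assay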
Description: SANGER: Inhibition of human SCC-15 cell growth in a cell viability assay.

Ramos-2G6-4C10 = assay type: functional, cell-based, Homo sapiens; conditions: Homo sapiens, Ramos-2G6-4C10;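 note: growth inhibition of the cell line, measured by a cell viability read-out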
Description: SANGER: Inhibition of human Ramos-2G6-4C10 cell growth in a cell viability assay.

NCI-H209 = assay type: functional, cell-based, Homo sapiens; conditions: Homo sapiens, NCI-H209;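 note: growth inhibition of human NCI-H209 cells, measured by a cell viability assay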
Description: SANGER: Inhibition of human NCI-H209 cell growth in a cell viability assay.

SF-539 = assay type: functional, cell-based, Homo sapiens; conditions: Homo sapiens, SF-539;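 note: Read-out is a cell viability assay, with IC50 reflecting inhibition of cell growth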
Description: SANGER: Inhibition of human SF539 cell growth in a cell viability assay.

TGBC24TKB = assay type: functional, cell-based; conditions: Homo sapiens;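 note: growth inhibition of human TGBC24TKB cells, read out with a cell viability assay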
Description: SANGER: Inhibition of human TGBC24TKB cell growth in a cell viability assay.

IA-LM = assay type: functional, cell-based; conditions: Homo sapiens;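 note: cell viability assay measuring growth inhibition of human IA-LM cells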
Description: SANGER: Inhibition of human IA-LM cell growth in a cell viability assay.

BB65-RCC = assay type: functional, cell-based, Homo sapiens; conditions: Homo sapiens, BB65-RCC;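 note: growth inhibition of the cell line, measured with a cell viability assay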
Description: SANGER: Inhibition of human BB65-RCC cell growth in a cell viability assay.

DMS-114 = assay type: functional, cell-based, Homo sapiens; conditions: Homo sapiens, DMS-114
ETK-1 = assay type: functional, cell-based, Homo sapiens; conditions: Homo sapiens, ETK-1;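 note: growth inhibition of human ETK-1 cells, read out with a cell viability assay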
Description: SANGER: Inhibition of human ETK-1 cell growth in a cell viability assay.

SF-268 = assay type: functional, cell-based, Homo sapiens; conditions: Homo sapiens, SF-268;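 note: growth inhibition of SF-268 cells determined with a cell viability assay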
Description: SANGER: Inhibition of human SF268 cell growth in a cell viability assay.

KARPAS-45 = assay type: functional, cell-based, Homo sapiens; conditions: Homo sapiens, KARPAS-45;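 note: inhibition of cell line growth, read out through a viability assay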
Description: SANGER: Inhibition of human KARPAS-45 cell growth in a cell viability assay.

8-MG-BA = assay type: functional, cell-based, Homo sapiens; conditions: Homo sapiens, 8-MG-BA;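 note: growth inhibition of 8-MG-BA cells, read out with a cell viability assay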
Description: SANGER: Inhibition of human 8-MG-BA cell growth in a cell viability assay.

HOP-62 = assay type: functional, cell-based, Homo sapiens; conditions: Homo sapiens, HOP-62;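 note: cell growth inhibition determined with a viability assay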
Description: SANGER: Inhibition of human HOP-62 cell growth in a cell viability assay.

MFM-223 = assay type: functional, cell-based, Homo sapiens; conditions: Homo sapiens, MFM-223
Description: SANGER: Inhibition of human MFM-223 cell growth in a cell viability assay.

KS-1 = assay type: functional, cell-based; conditions: Homo sapiens;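 note: growth inhibition of KS-1 cells, read out with a cell viability assay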
Description: SANGER: Inhibition of human KS-1 cell growth in a cell viability assay.

GI-1 = assay type: functional, cell-based, Homo sapiens; conditions: Homo sapiens, GI-1;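 note: growth inhibition of human GI-1 cells, measured with a cell viability readout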
Description: SANGER: Inhibition of human GI-1 cell growth in a cell viability assay.

LNCaP-Clone-FGC = assay type: functional, cell-based, Homo sapiens; conditions: Homo sapiens, LNCaP-Clone-FGC
Description: SANGER: Inhibition of human LNCaP-Clone-FGC cell growth in a cell viability assay.

NTERA-2-cl-D1 = assay type: functional, cell-based, Homo sapiens; conditions: Homo sapiens, NTERA-2-cl-D1;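 note: inhibition of cell growth, measured with a cell viability assay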
Description: SANGER: Inhibition of human NTERA-S-cl-D1 cell growth in a cell viability assay.

A101D = assay type: functional, cell-based, Homo sapiens; conditions: Homo sapiens, A101D;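 note: growth inhibition of the cell line, measured with a viability assay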
Description: SANGER: Inhibition of human A101D cell growth in a cell viability assay.

LS-123 = assay type: functional, cell-based, Homo sapiens; conditions: Homo sapiens, LS-123
Description: SANGER: Inhibition of human LS-123 cell growth in a cell viability assay.

ES8 = assay type: functional, cell-based, Homo sapiens; conditions: Homo sapiens, ES8;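 note: growth inhibition of human ES8 cells, read out with a cell viability assay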
Description: SANGER: Inhibition of human ES8 cell growth in a cell viability assay.

RPMI-8866 = assay type: functional, cell-based, Homo sapiens; conditions: Homo sapiens, RPMI-8866
Description: SANGER: Inhibition of human RPMI-8866 cell growth in a cell viability assay.

D-263MG = assay type: functional, cell-based, Homo sapiens; conditions: Homo sapiens, D-263MG
Description: SANGER: Inhibition of human D-263MG cell growth in a cell viability assay.

NCI-H1355 = assay type: functional, cell-based, Homo sapiens; conditions: Homo sapiens, NCI-H1355;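 note: growth inhibition of human NCI-H1355 cells, read out by a cell viability assay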
Description: SANGER: Inhibition of human NCI-H1355 cell growth in a cell viability assay.

LOX IMVI = assay type: functional, cell-based, Homo sapiens; conditions: Homo sapiens, LOX IMVI
Description: SANGER: Inhibition of human LOXIMVI cell growth in a cell viability assay.

SH-4 = assay type: functional, cell-based; conditions: Homo sapiens;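 note: growth inhibition of SH-4 cells, read out with a cell viability assay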
Description: SANGER: Inhibition of human SH-4 cell growth in a cell viability assay.

SF-126 = assay type: functional, cell-based, Homo sapiens; conditions: Homo sapiens, SF-126;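 note: growth inhibition of human SF126 cells, read out with a cell viability assay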
Description: SANGER: Inhibition of human SF126 cell growth in a cell viability assay.

KNS-42 = assay type: functional, cell-based; conditions: Homo sapiens;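 note: growth inhibition of KNS-42 cells, read out with a cell viability assay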
Description: SANGER: Inhibition of human KNS-42 cell growth in a cell viability assay.

ES1 = assay type: functional, cell-based, Homo sapiens; conditions: Homo sapiens, ES1;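 note: growth inhibition of ES1 cells, read out with a cell viability assay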
Description: SANGER: Inhibition of human ES1 cell growth in a cell viability assay.

TE-12 = assay type: functional, cell-based, Homo sapiens; conditions: Homo sapiens, TE-12;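 note: growth inhibition of TE-12 cells, read out by a cell viability assay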
Description: SANGER: Inhibition of human TE-12 cell growth in a cell viability assay.

KARPAS-299 = assay type: functional, cell-based, Homo sapiens; conditions: Homo sapiens, KARPAS-299
Description: SANGER: Inhibition of human KARPAS-299 cell growth in a cell viability assay.

HCE-4 = assay type: functional, cell-based; conditions: Homo sapiens;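 note: cell viability assay measuring inhibition of growth in the human HCE-4 cell line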
Description: SANGER: Inhibition of human HCE-4 cell growth in a cell viability assay.

COLO-800 = assay type: functional, cell-based, Homo sapiens; conditions: Homo sapiens, COLO-800;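 note: growth inhibition of COLO-800 cells, read out with a cell viability assay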
Description: SANGER: Inhibition of human COLO-800 cell growth in a cell viability assay.

Mo = assay type: functional, cell-based, Homo sapiens; conditions: Homo sapiens, Mo
Description: SANGER: Inhibition of human Mo-T cell growth in a cell viability assay.

HH = assay type: functional, cell-based, Homo sapiens; conditions: Homo sapiens, HH
Description: SANGER: Inhibition of human HH cell growth in a cell viability assay.

MZ1-PC = assay type: functional, cell-based, Homo sapiens; conditions: Homo sapiens, MZ1-PC;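 note: cell viability assay measuring growth inhibition of human MZ1-PC cells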
Description: SANGER: Inhibition of human MZ1-PC cell growth in a cell viability assay.

CGTH-W-1 = assay type: functional, cell-based, Homo sapiens; conditions: Homo sapiens, CGTH-W-1;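 note: growth inhibition of human CGTH-W-1 cells measured by cell viability assay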
Description: SANGER: Inhibition of human CGTH-W-1 cell growth in a cell viability assay.

C2BBe1 = assay type: functional, cell-based, Homo sapiens; conditions: Homo sapiens, C2BBe1;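 note: growth inhibition of C2BBe1 cells, read out through a viability assay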
Description: SANGER: Inhibition of human C2BBe1 cell growth in a cell viability assay.

**Q.** What does the source list for C/C(=C\c1csc(C)n1)[C@@H]1C[C@@H]2O[C@]2(C)CCC[C@H](C)[C@H](O)[C@@H](C)C(=O)C(C)(C)[C@@H](O)CC(=O)O1 [PATUPILONE]?
**A.** IC50 (TGW): 0.0135 µM; IC50 (GB-1): 0.00119 µM; IC50 (LB2518-MEL): 0.0176 µM; IC50 (A498): > 0.032 µM; IC50 (LU-134-A): 0.0158 µM; IC50 (SK-MEL-1): > 0.032 µM; IC50 (MLMA): 0.0141 µM; IC50 (MZ7-mel): 0.0171 µM; IC50 (HCC2157): 0.00128 µM; IC50 (GOTO): > 0.032 µM; IC50 (VA-ES-BJ): 0.00435 µM; IC50 (ES6): 0.0112 µM; IC50 (SNB-75): 0.00301 µM; IC50 (SCC-15): 0.00598 µM; IC50 (Ramos-2G6-4C10): 0.00962 µM; IC50 (NCI-H209): 0.0209 µM; IC50 (SF-539): 0.00227 µM; IC50 (TGBC24TKB): 0.00275 µM; IC50 (IA-LM): 0.000393 µM; IC50 (BB65-RCC): 0.000631 µM; IC50 (DMS-114): > 0.032 µM; IC50 (ETK-1): 0.000979 µM; IC50 (SF-268): 0.00466 µM; IC50 (KARPAS-45): 0.00582 µM; IC50 (8-MG-BA): 0.00478 µM; IC50 (HOP-62): 0.00104 µM; IC50 (MFM-223): > 0.032 µM; IC50 (KS-1): 0.00176 µM; IC50 (GI-1): 0.00243 µM; IC50 (LNCaP-Clone-FGC): 0.00426 µM; IC50 (NTERA-2-cl-D1): 0.000718 µM; IC50 (A101D): 0.000856 µM; IC50 (LS-123): 0.00096 µM; IC50 (ES8): 0.00165 µM; IC50 (RPMI-8866): 0.0198 µM; IC50 (D-263MG): > 0.032 µM; IC50 (NCI-H1355): 0.000915 µM; IC50 (LOX IMVI): > 0.032 µM; IC50 (SH-4): 0.00773 µM; IC50 (SF-126): 0.00347 µM; IC50 (KNS-42): 0.00391 µM; IC50 (ES1): 0.000221 µM; IC50 (TE-12): 0.00547 µM; IC50 (KARPAS-299): > 0.032 µM; IC50 (HCE-4): 0.0013 µM; IC50 (COLO-800): > 0.032 µM; IC50 (Mo): > 0.032 µM; IC50 (HH): 0.0098 µM; IC50 (MZ1-PC): 0.000607 µM; IC50 (CGTH-W-1): 0.0028 µM; IC50 (C2BBe1): > 0.032 µM

**Q.** With O=S(=O)(O)c1ccc2cc(/N=N/c3cc(S(=O)(=O)O)c4cccnc4c3O)ccc2c1 as the molecule, how does the IC50 (TGW) read?
**A.** > 16 µM

**Q.** And the IC50 (GB-1)?
**A.** > 16 µM

**Q.** And the IC50 (LB2518-MEL)?
**A.** > 16 µM

**Q.** What about the IC50 (A498) of the same molecule?
**A.** > 16 µM

**Q.** What about the IC50 (LU-134-A) of the same molecule?
**A.** > 16 µM

**Q.** What about the IC50 (SK-MEL-1) of the same molecule?
**A.** > 16 µM

**Q.** What about the IC50 (MLMA) of the same molecule?
**A.** > 16 µM

**Q.** And the IC50 (MZ7-mel)?
**A.** > 16 µM

**Q.** What about the IC50 (HCC2157) of the same molecule?
**A.** > 16 µM

**Q.** What about the IC50 (GOTO) of the same molecule?
**A.** > 16 µM

**Q.** And the IC50 (VA-ES-BJ)?
**A.** > 16 µM

**Q.** What about the IC50 (ES6) of the same molecule?
**A.** > 16 µM

**Q.** And the IC50 (SNB-75)?
**A.** > 16 µM

**Q.** And the IC50 (SCC-15)?
**A.** > 16 µM

**Q.** And the IC50 (Ramos-2G6-4C10)?
**A.** > 16 µM

**Q.** And the IC50 (NCI-H209)?
**A.** > 16 µM

**Q.** What about the IC50 (SF-539) of the same molecule?
**A.** > 16 µM

**Q.** And the IC50 (TGBC24TKB)?
**A.** > 16 µM

**Q.** And the IC50 (IA-LM)?
**A.** > 16 µM

**Q.** And the IC50 (BB65-RCC)?
**A.** > 16 µM

**Q.** What about the IC50 (DMS-114) of the same molecule?
**A.** > 16 µM

**Q.** What about the IC50 (ETK-1) of the same molecule?
**A.** > 16 µM

**Q.** And the IC50 (SF-268)?
**A.** > 16 µM

**Q.** What about the IC50 (KARPAS-45) of the same molecule?
**A.** > 16 µM

**Q.** And the IC50 (8-MG-BA)?
**A.** > 16 µM

**Q.** What about the IC50 (HOP-62) of the same molecule?
**A.** > 16 µM

**Q.** And the IC50 (MFM-223)?
**A.** > 16 µM

**Q.** And the IC50 (KS-1)?
**A.** > 16 µM

**Q.** And the IC50 (GI-1)?
**A.** > 16 µM

**Q.** And the IC50 (LNCaP-Clone-FGC)?
**A.** > 16 µM

**Q.** And the IC50 (NTERA-2-cl-D1)?
**A.** > 16 µM

**Q.** What about the IC50 (A101D) of the same molecule?
**A.** > 16 µM

**Q.** What about the IC50 (LS-123) of the same molecule?
**A.** > 16 µM

**Q.** What about the IC50 (ES8) of the same molecule?
**A.** > 16 µM

**Q.** What about the IC50 (RPMI-8866) of the same molecule?
**A.** > 16 µM

**Q.** And the IC50 (D-263MG)?
**A.** > 16 µM

**Q.** And the IC50 (NCI-H1355)?
**A.** > 16 µM

**Q.** And the IC50 (LOX IMVI)?
**A.** > 16 µM

**Q.** What about the IC50 (SH-4) of the same molecule?
**A.** > 16 µM

**Q.** What about the IC50 (SF-126) of the same molecule?
**A.** > 16 µM

**Q.** What about the IC50 (KNS-42) of the same molecule?
**A.** > 16 µM

**Q.** And the IC50 (ES1)?
**A.** > 16 µM

**Q.** What about the IC50 (TE-12) of the same molecule?
**A.** > 16 µM

**Q.** What about the IC50 (KARPAS-299) of the same molecule?
**A.** > 16 µM

**Q.** And the IC50 (HCE-4)?
**A.** > 16 µM

**Q.** And the IC50 (COLO-800)?
**A.** > 16 µM

**Q.** And the IC50 (Mo)?
**A.** > 16 µM

**Q.** And the IC50 (HH)?
**A.** > 16 µM

**Q.** And the IC50 (MZ1-PC)?
**A.** > 16 µM

**Q.** What about the IC50 (CGTH-W-1) of the same molecule?
**A.** > 16 µM

**Q.** What about the IC50 (C2BBe1) of the same molecule?
**A.** > 16 µM
